{"source": "patent US20070154540A1", "about": "(KMSI CO., LTD., priority 2003, published 2007)", "key": {"[1]": {"test_system": "osteoarthritis-induced New Zealand white rabbits", "assay": "Total joint synovial fluid volume (Arsenazo III) in osteoarthritis-induced rabbits", "type": "in vivo", "from_the_text": "(§1) To prepare an osteoarthritis animal model, New Zealand white rabbits underwent anterior cruciate ligament transection (ACLT) in joints of their two hind legs. After three days, the rabbits were forced to sustain movement for four weeks in a space of 5×5 m^3 to induce substantial osteoarthritis. […] The following Examples 3 to 10 were all performed using joints of the osteoarthritis-induced New Zealand white rabbits prepared as in this Example 2.\nTypically, synovial fluid volume increases with inflammation as osteoarthritis progresses. […] The supernatants were used in this test.\nSince synovial fluid volume has been reported to change according to the progress of osteoarthritis, total synovial fluid volume was measured to investigate changes in synovial fluids according to osteoarthritis induction and drug treatment. Synovial fluid volume was determined by measuring Ca^2+ concentrations in synovial fluids using an Arsenazo III complexion method (Michaylova V. et al., Anal. Chim. Acta, 53:194 (1971)). Total synovial fluid volume was calculated using a Donnan equilibrium equation. 0.01 ml of a synovial fluid was mixed with 1 ml of an Arsenazo III reagent (588-3, Sigma) and allowed to stand at room temperature for 5 min. Absorbance was measured at 600 nm using a spectrophotometer (DU650, Beckman)."}, "[2]": {"test_system": "osteoarthritis-induced New Zealand white rabbits", "assay": "Total protein levels in joint synovial fluids (Bradford)", "type": "in vivo", "from_the_text": "as §1\nAs cartilage is destroyed with the progress of osteoarthritis, proteins contained therein are released into synovial fluids. With this respect, total protein levels were measured in synovial fluids. Using the joint synovial fluids prepared in Example 3, total protein levels in synovial fluids were measured using a Bradford method. 50 μl of a synovial fluid was mixed with 200 μl of a protein analysis reagent (500-0006, Bio-Rad) and allowed to stand at room temperature for 5 min, and absorbance was then measured at 595 nm."}, "[3]": {"test_system": "osteoarthritis-induced New Zealand white rabbits", "assay": "Visual observation of joint cartilage in ACLT osteoarthritis-induced rabbits", "type": "in vivo", "from_the_text": "To prepare an osteoarthritis animal model, New Zealand white rabbits underwent anterior cruciate ligament transection (ACLT) in joints of their two hind legs. […] The following Examples 3 to 10 were all performed using joints of the osteoarthritis-induced New Zealand white rabbits prepared as in this Example 2. […] In contrast, in the PBS control group, the surface of joint cartilage was very rough due to the damage of the joint cartilage."}, "[4]": {"test_system": "osteoarthritis-induced New Zealand white rabbits", "assay": "Proteoglycan levels in joint synovial fluids (1,9-dimethylmethylene blue assay)", "type": "in vivo", "from_the_text": "as §1\nIn the joint synovial fluids prepared in Example 3, proteoglycan levels were measured using a 1,9-dimethylmethylene blue assay (Houselmann H. J. et al., Am. J. Physiol. 271:C742-752, (1996)). A synovial fluid sample of 50 μl was mixed with 250 μl of 1,9-dimethylmethylene blue (34,108-8, Aldrich), and absorbance was measured at 530 nm using a spectrophotometer (Power Wave X340, Bio-Tek)."}, "RAW 264.7 cells": {"test_system": "RAW 264.7 cells", "assay": "LPS-induced prostaglandin E2 production of macrophages (immunoassay)", "type": "cell-based, mice", "conditions": "LPS alone 4156, non-treated 71", "description": "A macrophage cell line derived from mice, RAW 264.7 (KCLB 40071), was purchased from the Korean Cell Line Bank. RAW 264.7 cells were seeded in a density of 3×10^6 cells onto 60-mm culture dishes containing DMEM (Dulbecco's Modified Eagle Medium, 12800-017, Gibco) supplemented with 10% FBS (fetal bovine serum, 26140-079, Gibco), 100 U/ml of penicillin and 100 μg/ml streptomycin (15140-122, Gibco), and cultured at 37° C. under 5% CO2 and humidity for 24 hrs. To induce NO production, RAW 264.7 cells were treated with 500 ng/ml of an E. coli cell wall component, lipopolysaccharide (LPS, […], Sigma). […] Herein, LPS was dissolved in distilled water, and apigenin was dissolved in DMSO. Then, the culture medium and a Griess reagent were mixed at a ratio of 1:1 (100 μl: 100 μl) and allowed to stand at room temperature for 10 min. Thereafter, absorbance was measured at 540 nm using a spectrophotometer (Power Wave X340, Bio-Tek). RAW 264.7 cells were treated under the same conditions as in Example 12. PGE2 levels were measured using a PGE2 immunoassay kit (DE0100, R&D Systems). 100 μl of a culture medium was allowed to react with 50 μl of a conjugate and 50 μl of an antibody in the kit for two hours, and was then allowed to react with 200 μl of a developing reagent, pNPP, for one hour. Thereafter, absorbance was measured at 405 nm using a spectrophotometer (Power Wave X340, Bio-Tek)."}, "[5]": {"test_system": "osteoarthritis-induced New Zealand white rabbits", "assay": "Mankin's scoring of joints", "type": "in vivo", "conditions": "after osteoarthritis induction, scale 0 to 14; control group 12.5", "description": "In histological tests, degenerative changes, such as structural changes of cartilage, cell number changes in cartilage and surface staining distribution by cartilage staining with a dye, were evaluated according to a standard scoring system for the progress of osteoarthritis, Mankin's scoring (Mankin, H. J. et al., Orthopedic Clinics of North America, 2:19-30 (1971)). In the present invention, blind tests were performed by two inspectors according to the Mankin's criteria.\nTo prepare an osteoarthritis animal model, New Zealand white rabbits underwent anterior cruciate ligament transection (ACLT) in joints of their two hind legs. After three days, the rabbits were forced to sustain movement for four weeks in a space of 5×5 m^3 to induce substantial osteoarthritis. […]\n30-mm synovial tissues were sectioned from the medial parapatella synovium of knee joints of experimental animals, fixed with 10% […] (F0507, Sigma) for over 24 hrs, and embedded in paraffin to make 4-mm paraffin blocks. […] Mankin's scoring was performed by blind tests carried out by two inspectors, and Mankin scores were determined according to the degree of degenerative progress and ranged from 0 (normal in all items) to a maximum score of 14, thus calculating a degenerative change index."}, "[6]": {"conditions": "non-treated left leg (−) of apigenin treatment group, four weeks after drug injection"}, "[7]": {"conditions": "non-treated left leg (−) of apigenin treatment group, two weeks after drug injection"}, "[8]": {"conditions": "apigenin-treated right leg (+), four weeks after drug injection"}, "[9]": {"conditions": "apigenin-treated right leg (+), four weeks after drug injection, listed as Apigenin"}, "[10]": {"conditions": "apigenin-treated right leg (+), two weeks after drug injection"}}}
{"smiles": "O=c1cc(-c2ccc(O)cc2)oc2cc(O)cc(O)c12", "note": "[apigenin, 4′,5,7-trihydroxyflavone]", "values": [{"measurement": "Total synovial fluid volume", "setting": "[1]; apigenin-treated right leg (+), 50 μg once per week, four weeks after drug injection", "result": "about 1.16 ml"}, {"measurement": "Total synovial fluid volume", "setting": "[1]; apigenin-treated right leg (+), 50 μg once per week, four weeks after drug injection, listed as Apigenin", "result": "1.16 ± 0.03", "unit": "mL"}, {"measurement": "Total synovial fluid volume", "setting": "[1]; apigenin-treated right leg (+), 50 μg once per week, two weeks after drug injection", "result": "1.13 ± 0.08", "unit": "mL"}, {"measurement": "Total synovial fluid volume", "setting": "[1]; [6]", "result": "about 1.58 ml"}, {"measurement": "Total synovial fluid volume", "setting": "[1]; non-treated left leg (−) of apigenin treatment group, four weeks after drug injection, listed as Apigenin", "result": "1.58 ± 0.24", "unit": "mL"}, {"measurement": "Total synovial fluid volume", "setting": "[1]; [7]", "result": "1.17 ± 0.08", "unit": "mL"}, {"measurement": "Total protein levels in joint synovial fluids", "setting": "[2]; [8]", "result": "about 24.91 mg/ml"}, {"measurement": "Total protein levels in joint synovial fluids", "setting": "[2]; [9]", "result": "24.91 ± 0.35", "unit": "mg/mL"}, {"measurement": "Total protein levels in joint synovial fluids", "setting": "[2]; [10]", "result": "16.64 ± 0.3", "unit": "mg/mL"}, {"measurement": "Total protein levels in joint synovial fluids", "setting": "[2]; [6]", "result": "36.37 ± 0.", "unit": "mg/ml"}, {"measurement": "Total protein levels in joint synovial fluids", "setting": "[2]; [7]", "result": "20.36 ± 0.69", "unit": "mg/mL"}, {"measurement": "surface of joint cartilage (visual)", "setting": "[3]; apigenin-treated right joint, 50 μg once per week for four weeks", "result": "visually smooth"}, {"measurement": "cartilage in the left joint of the test group (visual)", "setting": "[3]; non-treated left joint of apigenin group", "result": "improved to some extent"}, {"measurement": "Proteoglycan levels in joint synovial fluids", "setting": "[4]; [8]", "result": "about 12.22 μg/ml"}, {"measurement": "Proteoglycan levels in joint synovial fluids", "setting": "[4]; [9]", "result": "12.22 ± 0.4", "unit": "µg/mL"}, {"measurement": "Proteoglycan levels in joint synovial fluids", "setting": "[4]; [10]", "result": "10.32 ± 0.66", "unit": "µg/mL"}, {"measurement": "Proteoglycan levels in joint synovial fluids", "setting": "[4]; [6]", "result": "34.09 ± 0.24", "unit": "µg/mL"}, {"measurement": "Proteoglycan levels in joint synovial fluids", "setting": "[4]; [7]", "result": "22.90 ± 0.86", "unit": "µg/mL"}, {"measurement": "PGE2", "setting": "RAW 264.7 cells; LPS 500 ng/ml + apigenin 10 μM", "result": 3935, "unit": "pg/mL"}, {"measurement": "PGE2", "setting": "RAW 264.7 cells; LPS 500 ng/ml + apigenin 20 μM", "result": 3918, "unit": "pg/mL"}, {"measurement": "PGE2", "setting": "RAW 264.7 cells; LPS 500 ng/ml + apigenin 40 μM", "result": 1057, "unit": "pg/mL"}, {"measurement": "PGE2", "setting": "RAW 264.7 cells; LPS 500 ng/ml + apigenin 80 μM", "result": 300, "unit": "pg/mL"}, {"measurement": "Mankin score (mean)", "setting": "[5]", "result": 6.6}]}
